Data reported in US20180206495A1, “SUBSTITUTED ARYL AND HETEROARYL CARBOXYLIC ACID HYDRAZIDES OR SALTS THEREOF AND USE THEREOF TO INCREASE STRESS TOLERANCE IN PLANTS” (BAYER CROPSCIENCE AKTIENGESELLSCHAFT, priority 2015, published 2018).

Experiments:
Zea mays = assay: In vivo analyses Part A: drought stress, spray application, visual damage scoring, Zea mays
Protocol: (§1) Seeds of monocotyledonous and dicotyledonous crop plants were sown in sandy loam in wood-fiber or plastic pots, covered with soil or sand and cultivated in a greenhouse under good growth conditions. The trial plants were treated at the early leaf stage (BBCH10-BBCH13). To assure uniform water supply before commencement of stress, the potted plants were supplied with water by dam irrigation prior to substance application. The inventive compounds formulated in the form of wettable powders (WP) were sprayed onto the green parts of the plants as an aqueous suspension at an equivalent water application rate of 600 l/ha with addition of 0.2% wetting agent (e.g. agrotin). Substance application was followed immediately by stress treatment of the plants. For this purpose, the wood-fiber pots were transferred in plastic inserts in order to prevent them from subsequently drying out too quickly. Drought stress was induced by gradual drying out under the following conditions: “Day”: 14 hours with illumination at ˜26-30° C. “Night”: 10 hours without illumination at ˜18-20° C. The duration of the respective stress phases was guided mainly by the condition of the stressed control plants. It was ended (by re-irrigating and transfer to a greenhouse with good growth conditions) as soon as irreversible damage was observed on the stressed control plants. The end of the stress phase was followed by an about 4-7-day recovery phase, during which the plants were once again kept under good growth conditions in a greenhouse. The duration of the recovery phase was guided mainly by when the trial plants had attained a state which enabled visual scoring of potential effects, and is therefore variable. Once this juncture was reached, the intensities of damage were scored visually in comparison to untreated, unstressed controls of the same age. The damage intensity was at first assessed in per cent. These values were then used to calculate the efficacy of the test compounds by the following formula: [formula] EF: Efficacy DIs: Damage intensity of the stressed control plants DIt: Damage intensity of the stressed plants treated with test compound The values reported in tables A-1 to A-3 below are mean values from at least one trial with at least two repeats, showing the effects of selected compounds of the general formula (I) under drought stress on various crop plants.

Brassica napus [1] = assay: In vivo analyses Part A: drought stress, spray application, visual damage scoring, Brassica napus
Protocol: as §1

Brassica napus [2] = assay: In vivo analyses Part B: drought stress, spray application, appearance vs stressed control in categories, Brassica napus; parameters: key: 0: no positive effect; +: slight positive effect; ++: clear positive effect; +++: strong positive effect; details: dosage 25 g/ha
Protocol: (§2) Seeds of monocotyledonous and dicotyledonous crop plants were sown in sandy loam in plastic pots, covered with soil or sand and cultivated in a greenhouse under good growth conditions. The test plants are treated at the early leaf stage (BBCH10-BBCH13). To assure uniform water supply before commencement of stress, the potted plants were supplied with water by dam irrigation prior to substance application. The inventive compounds were first formulated as wettable powders (WP) or dissolved in a solvent mixture. The further dilution was effected with water supplemented with 0.2% wetting agent (e.g. agrotin). The finished spray liquor was sprayed onto the green parts of the plant at an equivalent water application rate of 600 l/ha. Substance application was followed immediately by stress treatment of the plants. Drought stress was induced by gradual drying out under the following conditions: “Day”: 14 hours with illumination at ˜26-30° C. “Night”: 10 hours without illumination at ˜18-20° C. The duration of the respective stress phases was guided mainly by the condition of the stressed control plants. It was ended (by re-irrigating and transfer to a greenhouse with good growth conditions) as soon as irreversible damage was observed on the stressed control plants. The end of the stress phase was followed by an about 4-7-day recovery phase, during which the plants were once again kept under good growth conditions in a greenhouse. The duration of the recovery phase was guided mainly by when the trial plants had attained a state which enabled visual scoring of potential effects, and was therefore variable. Once this juncture had been reached, the appearance of the plants treated with test substances was recorded in comparison to the stressed control plants by the following categories: • 0 no positive effect • + slight positive effect • ++ clear positive effect • +++ strong positive effect In order to rule out any influence on the effects observed by any fungicidal or insecticidal action of the test compounds, it was additionally ensured that the tests proceeded without fungal infection or insect infestation. The values reported in tables B-1 and B-2 below are mean values of the results from at least three repeats. Effects of selected compounds of the general formula (I) under drought stress according to the following tables B-1 and B-2: […]

Triticum aestivum [3] = assay: In vivo analyses Part B: drought stress, spray application, appearance vs stressed control in categories, Triticum aestivum; parameters: key: 0: no positive effect; +: slight positive effect; ++: clear positive effect; +++: strong positive effect; details: dosage 25 g/ha
Protocol: as §2

Triticum aestivum [4] = assay: In vivo analyses Part A: drought stress, spray application, visual damage scoring, Triticum aestivum; details: dosage 250 g/ha
Protocol: as §1

SMILES | EF [%] (ZEAMX) (Zea mays; dosage 250 g/ha) | EF [%] (BRSNS) (Brassica napus [1]; dosage 25 g/ha) | also measured
CN(C)N(Cc1c(Cl)cccc1Cl)C(=O)c1ccccc1C(F)(F)F [A1-7] | >5 |  | 
CN(C)N(Cc1ccccn1)C(=O)c1ccccc1C(F)(F)F [A1-21] |  | >5 | 
CN(C)N(Cc1ccc(Br)cc1F)C(=O)c1ccccc1C(F)(F)F [A1-44] | >5 |  | 
COc1cc(Cl)c(CN(C(=O)c2ccccc2C(F)(F)F)N(C)C)cc1OC [A1-147] | >5 | >5 | 
CN(C)N(CCc1ccccc1Cl)C(=O)c1ccccc1C(F)(F)F [A1-612] | >5 |  | Effect (BRSNS) (Brassica napus [2]): +; Effect (TRZAS) (Triticum aestivum [3]): +
CN(C)N(CCc1cccc(Cl)c1)C(=O)c1ccccc1C(F)(F)F [A1-613] | >5 |  | 
CN(C)N(Cc1ccccc1Cl)C(=O)c1cc(Cl)ccc1Cl [A7-1] |  | >5 | 
CN(C)N(Cc1ccccc1F)C(=O)c1cc(Cl)ccc1Cl [A7-11] |  | >5 | 
CN(C)N(Cc1ccc2ccccc2n1)C(=O)c1cc(Cl)ccc1Cl [A7-122] |  | >5 | 
CN(C)N(CCc1ccc(C(C)(C)C)cc1)C(=O)c1cc(Cl)ccc1Cl [A7-639] | >5 | >5 | 
COc1ccccc1C(=O)N(Cc1ccccc1Cl)N(C)C [A8-1] |  |  | EF [%] (BRSNS) (Brassica napus [1]; dosage 2.5 g/ha): >5%
CN(C)N(Cc1ccc(Cl)cc1)C(=O)c1ccc(Cl)cc1 [A9-3] | >5 |  | EF [%] (BRSNS) (Brassica napus [1]; dosage 250 g/ha): >5%
Cc1c(OCC(F)(F)F)ccnc1CN(C(=O)c1ccc(Cl)cc1)N(C)C [A9-144] |  |  | EF [%] (ZEAMX) (Zea mays; dosage 25 g/ha): >5%
CN(C)N(CCc1ccc(Cl)cc1)C(=O)c1ccc(Cl)cc1 [A9-614] |  |  | EF [%] (BRSNS) (Brassica napus [1]; dosage 250 g/ha): >5%
CN(C)N(CCc1ccc(Cl)cc1Cl)C(=O)c1ccc(Cl)cc1 [A9-615] | >5 |  | 
CN(C)N(CCc1ccc(C(C)(C)C)cc1)C(=O)c1ccc(Cl)cc1 [A9-639] | >5 |  | 
Cc1ccc(CCN(C(=O)c2ccc(Cl)cc2)N(C)C)cc1C [A9-663] | >5 |  | 
CN(C)N(Cc1c(Cl)cccc1Cl)C(=O)c1ccccc1Cl [A10-7] |  |  | EF [%] (BRSNS) (Brassica napus [1]; dosage 250 g/ha): >5%
COc1cc(OC)nc(CN(C(=O)c2ccccc2Cl)N(C)C)n1 [A10-30] |  |  | EF [%] (TRZAS) (Triticum aestivum [4]): >5%
COc1c(C)cnc(CN(C(=O)c2ccccc2Cl)N(C)C)c1C [A10-37] | >5 |  | 
CN(C)N(Cc1ccccc1C#N)C(=O)c1ccccc1Cl [A10-61] |  | >5 | 
Cc1c(OCC(F)(F)F)ccnc1CN(C(=O)c1ccccc1Cl)N(C)C [A10-144] |  |  | EF [%] (TRZAS) (Triticum aestivum [4]): >5%
CN(C)N(Cc1ccc(Cl)cc1Cl)C(=O)c1ccc(Cl)cc1Cl [A12-5] |  | >5 | 
CN(C)N(Cc1cc(C(F)(F)F)ccc1Cl)C(=O)c1ccc(Cl)cc1Cl [A12-86] |  | >5 | 
CN(C)N(Cc1ncc(C(F)(F)F)cc1Cl)C(=O)c1ccc(F)cc1C(F)(F)F [A14-36] | >5 |  | 
